≈ marks a conversion by molar mass, not a printed value. Where “and” joins values, the source holds several entries; their conditions need not be identical. Equal entries are not always repeated. Where two headings read alike, the source gives them in different places.
How the values were obtained:
[1] = target: AAC(3)-Ia from Acinetobacter baumannii (Acinetobacter baumannii); assay: crystal structure; AAC(3)-Ia with CoASH, with or without sisomicin; sitting-drop vapor diffusion at 22 °C, 0.1 M Tris pH 8.5, 0.05 M MgCl2, 20% EtOH, 35% PEG 400; one protomer per asymmetric unit, dimer by crystallographic symmetry
[2] = test system: CNC(C)C1CCC(N)C(OC2C(N)CC(N)C(OC3OCC(C)(O)C(NC)C3O)C2O)O1; assay: Michaelis-Menten kinetics, coupled acetylation assay (pyridine-4-thiolate at 324 nm); assay type: biochemical, Corynebacterium striatum; conditions: other: AAC(3)-XIa, 22 °C, pH 6.5, 150 μM acetyl coenzyme A, n = 3
Description: (§1) The acetylation of aminoglycosides was measured by a coupled assay, where the formation of pyridine-4-thiolate can be detected at 324 nm[42],[43]. The kinetic assays were performed at room temperature (22 °C) in quartz cuvettes (pathlength 1 cm) at a final volume of 0.8 mL. Reaction solution contained 25 mM MOPS pH 6.5, 100 mM NaCl, 500 μM 4,4’-dipyridyl disulfide (Aldrithiol™-4, Sigma-Aldrich), 150 μM acetyl coenzyme A, and aminoglycoside concentrations varying from 1.25 to 160 μM. The reaction was initialized by the addition of AAC(3)-Ia to a final concentration of 0.2 μM, AAC(3)-XIa to a final concentration of 1.94 μM, or AAC(3)-IIIa to a final concentration of 0.4 μM, where UV absorbance was measured over 5 min. All reactions were run in triplicate, and data analysis was performed using GraphPad5 software. One-way ANOVA and Tukey’s multiple comparison tests were used to determine the statistical significance of catalytic efficiencies.

[3] = test system: CN[C@@H]1[C@@H](O)[C@@H](O[C@@H]2[C@@H](O)[C@H](O[C@H]3OC(CN)=CC[C@H]3N)[C@@H](N)C[C@H]2N)OC[C@]1(C)O; assay: as above; assay type: biochemical, Corynebacterium striatum; conditions: other: AAC(3)-XIa, 22 °C, pH 6.5, 150 μM acetyl coenzyme A, n = 3
Description: as §1

[4] = test system: CNC(C)C1CCC(N)C(OC2C(N)CC(N)C(OC3OCC(C)(O)C(NC)C3O)C2O)O1; assay: purified protein, by the assay type; conditions: other: AAC(3)-IIIa, 22 °C, pH 6.5, 150 μM acetyl coenzyme A, n = 3
Description: The acetylation of aminoglycosides was measured by a coupled assay, where the formation of pyridine-4-thiolate can be detected at 324 nm[42],[43]. The kinetic assays were performed at room temperature (22 °C) in quartz cuvettes (pathlength 1 cm) at a final volume of 0.8 mL. Reaction solution contained 25 mM MOPS pH 6.5, 100 mM NaCl, 500 μM 4,4’-dipyridyl disulfide (Aldrithiol™-4, Sigma-Aldrich), 150 μM acetyl coenzyme A, and aminoglycoside concentrations varying from 1.25 to 160 μM. […] All reactions were run in triplicate, and data analysis was performed using GraphPad5 software. One-way ANOVA and Tukey’s multiple comparison tests were used to determine the statistical significance of catalytic efficiencies.

AAC(3)-IIIa = target: T1, AAC(3)-IIIa (Pseudomonas aeruginosa, UniProt P29808); assay: Isothermal titration calorimetry; assay type: binding, P. aeruginosa
T1 construct: 6xHis-tag (thrombin-cleavable, pET15b) (N); made in house; host or cells: LOBSTR E. coli
Description: (§2) To accurately measure protein ligand interactions, the concentration of our proteins of interest was measured spectrophotometrically using the NanoDrop OneC Spectrometer (Thermo Scientific). ITC experiments were performed on a MicroCal iTC 200 (General Electric) at 25 °C with stirring at 750 rpm. Unique buffer solutions were used for each enzyme. AAC(3)-Ia was prepared in 50 mM HEPES, pH 7, and 150 mM NaCl. AAC(3)-IIIa was prepared in 120 mM Tris, pH 7.5, and 150 mM NaCl. AAC(3)-XIa was prepared in 20 mM Tris, pH 7.5, and 150 mM NaCl. The cell contained 550 μM AAC(3)-Ia, 350 μM AAC(3)-IIIa, or 450 μM AAC(3)-XIa. All experiments also contained 5000 μM of coenzyme A trilithium salt in the cell. […] In all ITC experiments, aminoglycosides were prepared in the same buffering solution as the target protein. The ligands were injected 29 times ([…] per injection) with a 180 s interval between injections. Results were analyzed using ORIGIN software version 7E (MicroCal) using the molecular weight of a single protomer of each protein and fitted with a two-set of sites binding model (Supplementary Fig. 5). Data analysis was performed in Microsoft Excel and GraphPad5 software. One-way ANOVA and Tukey’s multiple comparison tests were used to determine the statistical significance of binding affinities.

[5] = test system: BL21(DE3) E. coli transformed with pUCP18 vector expressing AAC(3)-XIa; assay: Antibiotic susceptibility testing, endpoint MIC assay; assay type: cell-based; conditions: Escherichia coli, 20 h, read-out: Endpoint minimum inhibitory concentration (MIC)
Description: (§3) Ten milliliters of cultures of LB containing […] ampicillin were inoculated from glycerol stocks of transformed BL21(DE3) E. coli containing genes expressing the proteins of interest in pUCP18 vectors. Experiments were performed using 6xHis-tagged fusion-proteins, as well as untagged wild-type proteins. These cultures were incubated at 37 °C with 200 rpm agitation for 16 h. Turbidity was measured through OD600 with a NanoDrop OneC Spectrometer (Thermo Scientific). From the initial cultures, secondary 10 mL cultures were prepared with OD600 values of 0.1. These cultures were grown until OD600 values of 0.4–0.6 were reached and diluted to bring all cultures to the same OD600. Cultures were induced with 1 mM Isopropyl β-D-1-thiogalactopyranoside and incubated for 4 h. Cultures were diluted to 1 × 10^6 cells mL^−1. Two microliters of culture was added to 198 μL of LB with an appropriate aminoglycoside titration concentration. The formulated 96-well culture plate (Sarstedt) was incubated at 37 °C with 120 rpm orbital agitation. The remainder of the bacterial culture was immediately lysed and processed for Western blotting. OD600 was measured after 20 h using the Molecular Devices Spectra MAX 190 plate reader.

[6] = test system: empty pUCP18 vector transformed E. coli; assay: as above; assay type: cell-based; conditions: Escherichia coli; empty pUCP18 vector control E. coli; after 20 h of growth; read-out: Endpoint minimum inhibitory concentration (MIC)
Description: as §3

[7] = test system: BL21(DE3) E. coli transformed with pUCP18 vector expressing AAC(3)-Ia; assay: as above; assay type: cell-based; conditions: Escherichia coli, 20 h, read-out: Endpoint minimum inhibitory concentration (MIC)
Description: as §3

[8] = test system: BL21(DE3) E. coli transformed with pUCP18 vector expressing AAC(3)-IIIa; assay: as above; assay type: cell-based; conditions: Escherichia coli, 20 h, read-out: Endpoint minimum inhibitory concentration (MIC)
Description: as §3

AAC(3)-XIa = AAC(3)-XIa (Corynebacterium striatum, UniProt A0ABX7DED9); assay: Isothermal titration calorimetry; assay type: binding; conditions: 25 °C, with coenzyme A, n = 3
Description: as §2

AAC(3)-Ia = AAC(3)-Ia (Acinetobacter baumannii, UniProt D7R512); assay: Isothermal titration calorimetry; assay type: binding
Description: as §2

[9] = test system: BL21(DE3) E. coli transformed with pUCP18 vector expressing untagged AAC(3)-XIa; assay type: cell-based; conditions: E. coli expressing AAC(3)-XIa
Description: (§4) Ten milliliters of LB containing […] ampicillin were inoculated from glycerol stocks of transformed BL21(DE3) E. coli containing genes expressing the proteins of interest in pUCP18 vectors. These cultures were incubated at 37 °C with 200 rpm agitation for 16 h. Turbidity was measured through OD600 with a NanoDrop OneC Spectrometer (Thermo Scientific). From the initial cultures, secondary 10 mL cultures were prepared with OD600 values of 0.1. These cultures were grown until OD600 values of 0.4–0.6 were reached and diluted to bring all cultures to the same OD600. Cultures were induced with 1 mM Isopropyl β-D-1-thiogalactopyranoside and incubated for 4 h. Two microliters of culture was added to 198 μL of LB with an appropriate aminoglycoside titration concentration. Each titration point was repeated n = 4 times. The formulated 96-well culture plate (Sarstedt) had OD600 measured on a 20-min interval over 17 h using a BioTek Cytation 5 Cell Imaging Multimode Reader, incubating at 37 °C with 282 cpm orbital agitation. Experiments were repeated with fresh cultures on separate days to ensure consistent trends. Data was analyzed in Microsoft Excel and GraphPad5. The remainder of the culture immediately had its RNA isolated for qPCR experiments.

[10] = test system: BL21(DE3) E. coli transformed with pUCP18 vector expressing untagged AAC(3)-Ia; assay type: cell-based; conditions: E. coli expressing AAC(3)-Ia
Description: as §4

[11] = test system: BL21(DE3) E. coli transformed with pUCP18 vector expressing untagged AAC(3)-IIIa; assay type: cell-based; conditions: E. coli expressing AAC(3)-IIIa
Description: as §4

[12] = target: AAC(3)-XIa from Corynebacterium striatum (Corynebacterium striatum); assay: crystal structure; AAC(3)-XIa partial-apo, with AcCoA, or with CoASH/AcNHCoA and an aminoglycoside; sitting-drop vapor diffusion at 22 °C, 0.1 M trisodium acetate pH 4.6, 10–30% MPD, 0–24% PEG 200; both protomers of the dimer in the asymmetric unit
[13] = first set of sites, 25 °C, with coenzyme A, n = 3
[14] = second set of sites, 25 °C, with coenzyme A, n = 3
[15] = AAC(3)-XIa, second set of sites
[16] = AAC(3)-Ia, first set of sites, 25 °C, with coenzyme A, n = 3
[17] = AAC(3)-Ia, second set of sites, 25 °C, with coenzyme A, n = 3
[18] = 6 μg mL^−1 sisomicin, 3 μg mL^−1 gentamicin

AAC(3)-Ia from Acinetobacter baumannii (enzyme)
stoichiometry N [1]: 2

AAC(3)-XIa (Corynebacterium striatum)
Km [2]: 0.8 ± 0.2 µM
kcat [2]: 0.2 ± 0.003 s⁻¹
kcat/Km [2]: 200000 ± 40000 M⁻¹ s⁻¹
Km [3]: 6.8 ± 0.7 µM
kcat [3]: 0.4 ± 0.01 s⁻¹
kcat/Km [3]: 60000 ± 10000 M⁻¹ s⁻¹

AAC(3)-IIIa (Pseudomonas aeruginosa)
Km [4]: 13 ± 4 µM
kcat [4]: 36 ± 5 s⁻¹
kcat/Km [4]: 2.7e+06 ± 1.1e+06 M⁻¹ s⁻¹

CNC(C)C1CCC(N)C(OC2C(N)CC(N)C(OC3OCC(C)(O)C(NC)C3O)C2O)O1 (centres unmarked) [Gentamicin, gentamicin]
TΔS (AAC(3)-IIIa; [13]): 3.6 ± 0.053 kcal/mol
ΔG (AAC(3)-IIIa; [13]): -6.94 ± 0.077 kcal/mol
ΔH (AAC(3)-IIIa; [13]): -3.34 ± 0.056 kcal/mol
N (sites) (AAC(3)-IIIa; first set of sites, two-set of sites model, 25 °C, with coenzyme A, n = 3): 0.63 ± 0.01 sites
Kd (AAC(3)-IIIa; first set of sites, two-set of sites model, 25 °C, with coenzyme A, n = 3, read-out: Kd): 8.3 ± 0.2 µM
Kd (AAC(3)-IIIa; individual replicates, raw data behind Fig. 6, read-out: Kd): 8 µM and 8.13 µM and 8.7 µM
N2 (sites) (AAC(3)-IIIa; [14]): 0.63 ± 0.01 sites
TΔS 2 (AAC(3)-IIIa; [14]): 5.24 ± 0.043 kcal/mol
ΔG 2 (AAC(3)-IIIa; [14]): -6.69 ± 0.077 kcal/mol
ΔH 2 (AAC(3)-IIIa; [14]): -1.46 ± 0.063 kcal/mol
Kd (AAC(3)-IIIa; second set of sites, 25 °C, with coenzyme A, n = 3, read-out: Kd2): 12.4 ± 0.5 µM
MIC [5]: 12 µg/mL (≈ 25.1 µM)
MIC [6]: 6 µg/mL (≈ 12.6 µM)
MIC [7]: 6 µg/mL (≈ 12.6 µM)
MIC [8]: 12 µg/mL (≈ 25.1 µM)
TΔS (AAC(3)-XIa; AAC(3)-XIa, first set of sites): -1.38 ± 0.171 kcal/mol
ΔG (AAC(3)-XIa; AAC(3)-XIa, first set of sites): -5.38 ± 2.88 kcal/mol
ΔH (AAC(3)-XIa; AAC(3)-XIa, first set of sites): -6.77 ± 2.87 kcal/mol
N (sites) (AAC(3)-XIa; AAC(3)-XIa, first set of sites, two-set of sites model): 0.28 ± 0.06 sites
N2 (sites) (AAC(3)-XIa; [15]): 0.31 ± 0.05 sites
TΔS 2 (AAC(3)-XIa; [15]): -2.916 ± 1.036 kcal/mol
ΔG 2 (AAC(3)-XIa; [15]): -7.042 ± 1.18 kcal/mol
ΔH 2 (AAC(3)-XIa; [15]): -9.958 ± 0.567 kcal/mol
Kd (AAC(3)-XIa; Kd2, AAC(3)-XIa, second set of sites): 8.5 ± 5.5 µM
Kd (AAC(3)-XIa; Kd, AAC(3)-XIa, first set of sites, two-set of sites model): 6.1 ± 1.8 µM
TΔS (AAC(3)-Ia; [16]): -0.808 ± 0.343 kcal/mol
ΔG (AAC(3)-Ia; [16]): -6.52 ± 0.418 kcal/mol
ΔH (AAC(3)-Ia; [16]): -7.33 ± 0.238 kcal/mol
N (sites) (AAC(3)-Ia; AAC(3)-Ia, first set of sites, two-set of sites model, 25 °C, with coenzyme A, n = 3): 0.49 ± 0.02 sites
N2 (sites) (AAC(3)-Ia; [17]): 0.57 ± 0.02 sites
TΔS 2 (AAC(3)-Ia; [17]): 4.24 ± 0.08 kcal/mol
ΔG 2 (AAC(3)-Ia; [17]): -6.3 ± 0.112 kcal/mol
ΔH 2 (AAC(3)-Ia; [17]): -2.06 ± 0.08 kcal/mol
Kd (AAC(3)-Ia; Kd2, AAC(3)-Ia, second set of sites, 25 °C, with coenzyme A, n = 3): 23.8 ± 0.3 µM
Kd (AAC(3)-Ia; Kd, AAC(3)-Ia, first set of sites, two-set of sites model, 25 °C, with coenzyme A, n = 3): 17.1 ± 3.2 µM
Kd (AAC(3)-Ia; Kd, AAC(3)-Ia, individual replicates, raw data behind Fig. 6): 23.5 µM and 13.4 µM and 14.4 µM
Level of resistance relative to empty vector control (OD600 growth curve) [9, 18]: greater level of resistance than the empty vector control
Growth (OD600 growth curve) ([9]; 12 μg mL^−1 antibiotic, 17 h): none of the strains of transformed E. coli were able to grow at all
Growth (OD600 growth curve) ([10]; 12 μg mL^−1 antibiotic, 17 h): none of the strains of transformed E. coli were able to grow at all
Level of resistance relative to empty vector control (OD600 growth curve) ([10]; all concentrations tested): unable to outperform the empty vector control in any experiments
Level of resistance relative to empty vector control (OD600 growth curve) [11, 18]: greater level of resistance than the empty vector control
Growth (OD600 growth curve) ([11]; 12 μg mL^−1 antibiotic, 17 h): none of the strains of transformed E. coli were able to grow at all

AAC(3)-XIa from Corynebacterium striatum (enzyme)
stoichiometry N [12]: 2
